# Laboratory results taken from US20150297509A1, “IMPLANTABLE DRUG DELIVERY COMPOSITIONS AND METHODS OF TREATMENT THEREOF” (BRAEBURN PHARMACEUTICALS BVBA SPRL, priority 2012, published 2015).
# Structures can show the parent of a compound that is named as a salt.
# Tests used:
# [1] = in vitro elution of lidocaine from TECOFLEX EG-93A polyurethane implants; type: physicochemical; conditions: TECOFLEX EG-93A tubing, about 180 mg pure lidocaine without excipients, 300 mL 0.9% saline at 37° C, daily exchanges, up to 8 days; for release of drug from the implant (in vitro elution): HPLC
# Protocol: (§1) The follow general procedure was followed for the manufacture of API-containing implants.
# (§2) Sterilization was accomplished by gamma irradiation of the implants.
# A total of about 180 mg pure (100%) lidocaine were loaded into the implant without any excipients (without any sorption enhancer or lubricant).
# [2] = in vitro elution of raloxifene from TECOFLEX EG-80A polyurethane implants; type: physicochemical; conditions: TECOFLEX EG-80A tubing, 88% API, 10% croscarmellose sodium, 2% stearic acid, about 250 mg raloxifene, 800 mL 0.9% saline at 37° C, weekly exchanges, HPLC, up to 20 weeks
# Protocol: as §1, §2
# The drug blend was 88% API, 10% sorption enhancer, and 2% lubricant. […] A total of about 250 mg raloxifene were loaded into the implant with 10% croscarmellose sodium and 2% stearic acid.
# [3] = oral dosage form, target oral daily dose about 60 mg; cited from earlier work
Compound,release of drug from the implant (in vitro elution) [1],release of drug from the implant (in vitro elution) [2],other results
CCN(CC)CC(=O)Nc1c(C)cccc1C [lidocaine free base],readily released,–,in vitro elution rate from the implant [1]: more than 10 mg/day
O=C(c1ccc(OCCN2CCCCC2)cc1)c1c(-c2ccc(O)cc2)sc2cc(O)ccc12 [raloxifene hydrochloride],–,No drug was released,release of drug from the implant (in vitro elution) ([2]; listed as raloxifene HCI): no drug was released; oral bioavailability [3]: ~2%
"O=C(c1ccc(OCCN2CCCCC2)cc1)c1c(-c2ccc(O)cc2)sc2cc(O)ccc12 [raloxifene free base, [6-hydroxy-2-(4-hydroxyphenyl)-benzothiophen-3-yl]-[4-[2-(1-piperidyl)ethoxy]phenyl]-methanone]",–,readily released,–
CCN(CC)CC(=O)Nc1c(C)cccc1C [lidocaine hydrochloride],No drug was released,–,release of drug from the implant (in vitro elution) ([1]; listed as lidocaine HCl): no drug was released
